Measurements taken from patent publication US4499104A, “Imidazole compound, the process for its preparation, and therapeutically active compositions containing same” (priority 1976, dated 1985).
“Also recorded” adds a separate entry of the source.

Columns and labels:
Rabbit = assay: Acute toxicity, rabbit; assay type: in vivo; settings: intravenous injection
Experimental: (b) Rabbit: by intravenous injection DL100 =55 mg/kg

[1] = Pulminary edema by carrageen (Sancilio method, pleural exudate); assay type: in vivo, Wistar-Roux-Ocefa rats
Experimental: Using the Sancilio method (Sancilio F. L., J. Pharmacol. Exptl. Therap., 168, 199 (1969); Sancilio L. F. Rodrigues R., Proc. Soc. Exptl. Biol. Med., 123, 707 (1969); Sancilio L. F. Lawrence R., Proc. Soc. Exptl. Biol. Med., 127, 597 (1968), pulminary irritation was induced in Wistar-Roux-Ocefa rats and the capacity of chlorophenazole and other drugs to prevent production of pleural exudate was measured. 5 ml of a 0.025% carrageen solution and 0.075% Evans blue were injected into the pleurea.
The action of chlorophenazole, mepyrazole and phenylbutazone were evaluated from the quantity of exudate present in the pleural cavity after 1 and 6 hours.

rats [2] = assay: Chronic toxicity, second experiment (5 months); assay type: in vivo, Wistar-Ocefa rats; settings: for cholesterol: male rats
Experimental: (§1) Wistar-Ocefa rats of both sexes weighing 70-90 g were used, divided into groups of 30 animals (15 males and 15 females) to a total of […].
(§2) Chlorophenazole and phenylbutazone (reference drug) were administered orally for a period of 60 days in doses of 30-60 mg/kg of chlorophenazole and 8-160 mg/kg of phenylbutazone (first experiment) and for a period of 5 months in doses of 6-12 mg/kg of chlorophenazole and 16 mg/kg of phenylbutazone (second experiment).
(§3) The following parameters were determined periodically: behavior, general state, food consumption, body weight, red blood cell number, white blood cell number, leucocite formula, hemoglobin, hematocrit, globular value, total proteins, glycemia, azotemia, cholesterol, total lipids, triglycerides, creatinine, GOT, GPT, urine analysis. At the end of the experiment the animals were sacrificed, their general state was observed, the following organs were weighed: liver, spleen, kidneys, supranenes, ovary and testicles, lungs, heart, stomach.

[3] = Anticonvulsive activity against cardiazole; assay type: in vivo, Rockland-Ocefa mice; settings: for Protection from convulsivant cardiazole, first value: first of two values; for Protection from convulsivant cardiazole, second value: second of two values
Experimental: Rockland-Ocefa mice of both sexes weighing 22±3 g and fasting for 16 hours were used.

[4] = Antipyretic activity, hyperthermia by beer yeast in rat; assay type: in vivo, Wistar stock; settings: oral, 1/10 of DL50; chlorophenazole 50 mg/kg, phenylbutazone 35 mg/kg
Experimental: It was then measured in the rat using 10 animals of Wistar stock per group weighing 170-200 g, made hyperthermal by subcutaneous injection of a 10% beer yeast suspension in distilled water.
The compounds awere administered orally 60 minutes after the induction of fever in doses equal to 1/10 of the DL50. Readings were taken at 30 minute intervals for 5 hours.

[5] = Action on sleep by barbiturates; assay type: in vivo, Wistar-Ocefa rats
Experimental: […] Loss of the redressment reflex was taken to indicate commencement of sleep. The chlorophenazone was administered orally with a dose of 1/10 of the DL50. The induction time and the duration of sleep were measured.

rats [6] = assay: Chronic toxicity, first experiment (60 days); assay type: in vivo, Wistar-Ocefa rats; settings: 60 days
Experimental: as §1, §2, §3

human = assay: Human therapy; assay type: in vivo
[7] = Edema by carrageen (rat paw), antiedematous activity; assay type: in vivo, Rats of the Wistar-Roux-Ocefa stock
Experimental: A 1% physiological solution of carrageen was used. Rats of the Wistar-Roux-Ocefa stock having a weight of 150±30 g were used. The drugs were suspended in 1% carboxymethylcellulose or dissolved in distilled water and administered orally one hour before the inflammatory agent in a volume of 0.5 ml/100 g. The carrageen was adminstered subcutaneously in the subplanetary region of one of the rear paws. The volume of the paw was measured platysmagraphically initially and then after 1.5 hour, 3 hours and 5 hours after administering the carrageen. One inflammation unit was defined as the displacement of 0.01 ml of Hg.
The edema was evaluated as the difference in volume of the rear paw before and after the carrageen. The DE 50 was calculated by the probits method and graphically. The comparison drugs used were phenylbutazone and niflumic acid.

Rat = assay: Acute toxicity, rat
Dog = assay: Acute toxicity, dog; assay type: in vivo
[8] = Antipyretic activity, hyperthermia by lysate of Neisseria perflava in rabbit; assay type: in vivo, male albino rabbits; settings: oral
Experimental: This was first studied in the rabbit, using 6 male albino rabbits of 3-3.5 kg per group, made hyperthermal by i.v. injection of 0.5 ml/kg of a lysate of Neisseria perflava. The rectal temperature was determined by thermocouples every 60 minutes for 3 hours. The difference in temperature was calculated between maximum elevation and base temperature at each time. The drug was administered orally.

[9] = Hot plate method (thermal stimulus), analgesic activity; assay type: in vivo, Male mice
Experimental: This is based on the time (seconds) taked by the mouse for removing his paws from a plate heated to 56° C. Male mice were used of weight 25 to 27 g, preselected so that all reacted in a time less than 20 seconds.
The reaction time was measured 15, 30 and 60 minutes after administering the drugs. The chlorophenazole was tested orally and subcutaneously, both alone and associated with morphine hydrochloride. […] (FIGS. 2 and 3).

in vivo = settings: rat
[10] = chlorophenazole 51.5 mg/kg oral + pentobarbital sodium 20 mg/kg

Question: For Cc1[nH]cnc1-c1ccc(Cl)cc1 [Chlorophenazole, 4-(p-chlorophenyl)-5-methylimidazole], which DL100 (Rabbit) is on record?
Answer: Its DL100 is 55 mg/kg.

Question: And the “final framework (symptoms)” value (Rabbit)?
Answer: Its value is “marked muscular hypotonia, an almost catatonic state and death by respiratory paralysis”.

Question: What about the ml of exudate ([1]; 30 mg/Kg, pleural cavity) of the same molecule?
Answer: The ml of exudate was 3.11 mL.

Question: And the “activity on pleural exudate” value ([1]; exudate after 1 and 6 hours)?
Answer: The value was “significantly active”.

Question: What about the cholesterol (rats [2]; 6 mg/kg) of the same molecule?
Answer: The cholesterol was “significant alteration”.

Question: And the glycemia (rats [2]; 12 mg/kg, female rats)?
Answer: The glycemia was “small increase in glycemia”.

Question: What about the cholesterol (rats [2]; greater dose) of the same molecule?
Answer: Its cholesterol is “not confirmed with the greater dose”.

Question: What about the “Protection from convulsivant cardiazole, first value” (from here on “Protection … first value”) ([3]; 50 mg/kg, 15') of the same molecule?
Answer: The value was 6.23.

Question: And the “Protection from convulsivant cardiazole, second value” (from here on “Protection … second value”) ([3]; 50 mg/kg, 15')?
Answer: The value was 6.70.

Question: What about the “Protection … first value” ([3]; 50 mg/kg, 30') of the same molecule?
Answer: Its value is 10.80.

Question: And the “Protection … second value” ([3]; 50 mg/kg, 30')?
Answer: Its value is 8.30.

Question: And the “Protection … first value” ([3]; 50 mg/kg, 90')?
Answer: Its value is 8.10.

Question: And the “Protection … second value” ([3]; 50 mg/kg, 90')?
Answer: Its value is 7.0.

Question: What about the “Protection … first value” ([3]; 100 mg/kg, 15') of the same molecule?
Answer: Its value is 9.90.

Question: What about the “Protection … second value” ([3]; 100 mg/kg, 15') of the same molecule?
Answer: The value was 8.90.

Question: And the “Protection … first value” ([3]; 100 mg/kg, 30')?
Answer: The value was 13.00.

Question: What about the “Protection … second value” ([3]; 100 mg/kg, 30') of the same molecule?
Answer: Its value is 26.40.

Question: And the “Protection … first value” ([3]; 100 mg/kg, 90')?
Answer: Its value is 28.70.

Question: And the “Protection … second value” ([3]; 100 mg/kg, 90')?
Answer: The value was 20.00.

Question: What about the “Protection … second value” ([3]; 200 mg/kg, 15') of the same molecule?
Answer: The value was 9.2.

Question: What about the “Protection … second value” ([3]; 200 mg/kg, 30') of the same molecule?
Answer: The value was 27.30.

Question: What about the “Protection … second value” ([3]; 200 mg/kg, 90') of the same molecule?
Answer: The value was 30.10.

Question: And the “framework of convulsive death” value ([3]; cardiazole and strychnine)?
Answer: The value was “does not modify the framework of convulsive death”.

Question: What about the premortal period ([3]; cardiazole and strychnine) of the same molecule?
Answer: Its premortal period is “significant elongation of the premortal period”.

Question: And the “antipyretic activity relative to phenylbutazone” value [4]?
Answer: The value was “superiority over phenylbutazone”.

Question: What about the “action on sleep by barbiturates” value ([5]; 1/10 of the DL50 oral) of the same molecule?
Answer: Its value is “improves sleep by barbiturates”.

Question: And the “Induction time” value [5, 10]?
Answer: The value was 2.9 min.

Question: And the “Sleeping time” value [5, 10]?
Answer: The value was 65.2 min.

Question: And the stomach appearance (rats [6])?
Answer: The stomach appearance was “distended and rose colored”.

Question: And the cholesterol (rats [6]; larger doses)?
Answer: The cholesterol was “the same for cholesterol at the larger doses”.

Question: What about the “pharmacological results in human therapy” value (human) of the same molecule?
Answer: Its value is “fully confirmed in human therapy”.

Question: What about the “Δ Volume of the inflamed paw” value ([7]; 10 mg/kg oral, 1.5 hours) of the same molecule?
Answer: The value was 15 UPI.

Question: What about the “Δ Volume of the inflamed paw” value ([7]; 10 mg/kg oral, 3 hours) of the same molecule?
Answer: The value was 35 UPI.

Question: What about the “Δ Volume of the inflamed paw” value ([7]; 10 mg/kg oral, 5 hours) of the same molecule?
Answer: The value was 58 UPI.

Question: And the “Δ Volume of the inflamed paw” value ([7]; 20 mg/kg oral, 1.5 hours)?
Answer: The value was 15 UPI.

Question: What about the “Δ Volume of the inflamed paw” value ([7]; 20 mg/kg oral, 3 hours) of the same molecule?
Answer: The value was 29 UPI.

Question: What about the “Δ Volume of the inflamed paw” value ([7]; 20 mg/kg oral, 5 hours) of the same molecule?
Answer: The value was 44 UPI.

Question: And the “Δ Volume of the inflamed paw” value ([7]; 40 mg/kg oral, 1.5 hours)?
Answer: The value was 15 UPI.

Question: And the “Δ Volume of the inflamed paw” value ([7]; 40 mg/kg oral, 3 hours)?
Answer: Its value is 23 UPI.

Question: And the “Δ Volume of the inflamed paw” value ([7]; 40 mg/kg oral, 5 hours)?
Answer: Its value is 42 UPI.

Question: And the “IT (DL50/DE50)” value ([7]; DL50/DE50, os)?
Answer: Its value is 73.60.

Question: What about the ED50 ([7]; Rattus norvegicus, po, os, probits method and graphically, read-out: DE50 (the source's name)) of the same molecule?
Answer: Its ED50 is 7 mg/kg.

Question: And the “antiedematous activity relative to comparison drugs” value ([7]; oral)?
Answer: Its value is “more active than phenylbutazone; also recorded: only slightly more active than niflumic acid”.

Question: And the “antiinflamatory analgesic activity, overall comparison” value ([7]; summary of the tests)?
Answer: Its value is “decidedly better than phenylbutazone, niflumic acid, clonixine or mepyrazole”.

Question: And the symptoms preceding death (Rat; rat and mouse, acute toxicity)?
Answer: Its symptoms preceding death is “reduction in spontaneous motility, sedation, hypotherma, paralysis”.

Question: And the “acute toxicity values and therapeutic index relative to phenylbutazone” value (Rat; summary)?
Answer: Its value is “well in excess of those for phenylbutazone”.

Question: What about the DL100 (Dog) of the same molecule?
Answer: The DL100 was 50 mg/kg.

Question: And the “protection from temperature increase” value [8]?
Answer: Its value is “clearly protected the animals from temperature increase”.

Question: What about the “reaction time relative to control mice” value ([9]; 50 mg/kg oral) of the same molecule?
Answer: The value was “significantly prolongs the reaction time relative to the control mice”.

Question: And the “effect on morphine analgesia” value ([9]; associated with morphine hydrochloride)?
Answer: Its value is “evident increase exerted by the drug on morphine analgesia”.

Question: And the LD50 (in vivo; ip)?
Answer: Its LD50 is 135 mg/kg.

Question: What about the LD50 (in vivo; po) of the same molecule?
Answer: The LD50 was 515 mg/kg.
